Reference: patent US20230293526A1, “METHOD FOR TREATING CANCER WITH A REVERSE TRANSCRIPTASE INHIBITOR” (PrimeFour Therapeutics, Inc., priority 2020, published 2023)

How the values were obtained:
Assay type in all cases: cell-based
DLD1 = assay: Cell proliferation Ex.3; settings: Homo sapiens, DLD-1
Procedure: (§1) A dose response relationship on cell proliferation was assessed for Compound 13 on 140 tumor cell lines. […] Cells were cultured in the appropriate media. For the assays, cells were seeded in white cell culture-treated flat and clear bottom multiwell plates and incubated at 37° C. overnight before compound was added. […] on the medium, cell plates were equilibrated to room temperature for one hour, CellTiterGlo reagent (Promega) was added and luminescence was measured approximately an hour later using a luminometer. Raw data were converted into percent cell viability relative to the high and low control, which were set to 10000 and 000, respectively.

SKHEP1 = assay: Cell proliferation Ex.3; settings: Homo sapiens, SK-HEP1
Procedure: as §1

A204 = assay: Cell proliferation Ex.3; settings: Homo sapiens
Procedure: as §1

KASUMI = assay: Cell proliferation Ex.3
Procedure: as §1

CLS439 = assay: Cell proliferation Ex.3
Procedure: as §1

SU-DHL-6 = assay: Cell proliferation Ex.3; settings: Homo sapiens
Procedure: as §1

786O = assay: Cell proliferation Ex.3; settings: Homo sapiens
Procedure: as §1

ACHN = assay: Cell proliferation Ex.3; settings: Homo sapiens
Procedure: as §1

WSU-NHL = assay: Cell proliferation Ex.3; settings: Homo sapiens
Procedure: as §1

LOVO = assay: Cell proliferation Ex.3; settings: Homo sapiens
Procedure: as §1

MCF7 = assay: Cell proliferation Ex.3; settings: Homo sapiens
Procedure: as §1

JAR = assay: Cell proliferation Ex.3
Procedure: as §1

GRANTA-519 = assay: Cell proliferation Ex.3; settings: Homo sapiens
Procedure: as §1

PBMC = assay: Cell proliferation Ex.3
786-O = assay: Cell proliferation CellTiterGlo Ex.2; settings: Homo sapiens, 786-0; 786-O (Kidney), 72 h
Outline: (§2)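 Cells were seeded, incubated overnight at 37 °C, then dosed at 10, 3, 1, 0.3, 0.1, 0.03, 0.01 and 0.003 μM for 72 h (5% or 10% CO2). CellTiterGlo luminescence gave percent viability relative to 0.10% DMSO (high) and 10 μM staurosporine (low) controls.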

JIMT-1 = assay: Cell proliferation CellTiterGlo Ex.2; settings: Homo sapiens; JIMT-1 (Breast), 72 h
Outline: as §2

RERF-LC-MS = assay: Cell proliferation CellTiterGlo Ex.2; settings: RERF-LC-MS (Lung), 72 h
Outline: as §2

HCT116 = assay: Cell proliferation CellTiterGlo Ex.2; settings: Homo sapiens, HCT-116; HCT116 (Colon), 72 h
Outline: as §2

MDA MB 435 = assay: Cell proliferation CellTiterGlo Ex.2; settings: Homo sapiens; MDA MB 435 (Skin), 72 h
Outline: as §2

OVCAR-3 = assay: Cell proliferation CellTiterGlo Ex.2; settings: Homo sapiens; OVCAR-3 (Ovary), 72 h
Outline: as §2

KMS-12-BM = assay: Cell proliferation CellTiterGlo Ex.2; settings: Homo sapiens; KMS-12-BM (Blood), 72 h
Outline: as §2

DU-145 = assay: Cell proliferation CellTiterGlo Ex.2; settings: Homo sapiens; DU-145 (Prostate), 72 h
Outline: as §2

COR-L279 = assay: Cell proliferation CellTiterGlo Ex.2; settings: Homo sapiens; COR-L279 (Lung), 72 h
Outline: as §2

OCI-AML5 = assay: Cell proliferation CellTiterGlo Ex.2; settings: Homo sapiens, OCI-AML-5; OCI-AML5 (Blood), 72 h
Outline: as §2

A2780 = assay: Cell proliferation CellTiterGlo Ex.2; settings: Homo sapiens; A2780 (Ovary), 72 h
Outline: as §2

HEC-1-B = assay: Cell proliferation CellTiterGlo Ex.2; settings: Homo sapiens; HEC-1-B (Endometrium), 72 h
Outline: as §2

For `C#C[C@]1(CO)O[C@@H](n2cc(F)c(N)nc2=O)C[C@@H]1O` [compound 9], the IC50 (DLD1; DLD1, 72 h) was over 10 µM, the IC50 (DLD1; DLD1, 120 h) was over 10 µM and the IC50 (DLD1; DLD1, 168 h) was over 10 µM. The IC50 (SKHEP1; SKHEP1, 72 h) was over 10 µM, the IC50 (SKHEP1; SKHEP1, 120 h) was over 10 µM and the IC50 (SKHEP1; SKHEP1, 168 h) was over 10 µM. The IC50 (A204; A204, 72 h) was over 10 µM, the IC50 (A204; A204, 120 h) was over 10 µM and the IC50 (A204; A204, 168 h) was over 10 µM. The IC50 (KASUMI; 72 h) was over 10 µM, the IC50 (KASUMI; 120 h) was over 10 µM and the IC50 (KASUMI; 168 h) was over 10 µM. For the same compound, the IC50 (CLS439; CLS439, 72 h) was over 10 µM, the IC50 (CLS439; CLS439, 120 h) was over 10 µM and the IC50 (CLS439; CLS439, 168 h) was over 10 µM. The IC50 (SU-DHL-6; SU-DHL-6, 72 h) was over 10 µM, the IC50 (SU-DHL-6; SU-DHL-6, 120 h) was 4.99 µM and the IC50 (SU-DHL-6; SU-DHL-6, 168 h) was 1.3 µM. For the same compound, the IC50 (786O; 786-0, 72 h) was over 10 µM, the IC50 (786O; 786-0, 120 h) was over 10 µM and the IC50 (786O; 786-0, 168 h) was over 10 µM. The IC50 (ACHN; 72 h) was over 10000 nM, the IC50 (ACHN; 120 h) was 910 nM and the IC50 (ACHN; 168 h) was 940 nM. The IC50 (WSU-NHL; 72 h) was 3010 nM, the IC50 (WSU-NHL; 120 h) was 420 nM and the IC50 (WSU-NHL; 168 h) was 870 nM. For the same compound, the IC50 (LOVO; 72 h) was over 10 µM, the IC50 (LOVO; 120 h) was 3.28 µM and the IC50 (LOVO; 168 h) was 2.06 µM. The IC50 (MCF7; MCF7, 72 h) was over 10 µM, the IC50 (MCF7; MCF7, 120 h) was over 10 µM and the IC50 (MCF7; MCF7, 168 h) was over 10 µM. For the same compound, the IC50 (JAR; 72 h) was over 10 µM, the IC50 (JAR; 120 h) was over 10 µM and the IC50 (JAR; 168 h) was over 10 µM. For the same compound, the IC50 (GRANTA-519; Granta-519, 72 h) was 4980 nM, the IC50 (GRANTA-519; Granta-519, 120 h) was 240 nM and the IC50 (GRANTA-519; Granta-519, 168 h) was 350 nM. The IC50 (PBMC; 72 h) was over 10 µM, the IC50 (PBMC; 120 h) was over 10 µM and the IC50 (PBMC; 168 h) was over 10 µM.
`C#C[C@]1(CO)O[C@@H](n2cnc3c(=O)[nH]c(N)nc32)C[C@@H]1O` [compound 13] gave an IC50 (786-O) of 5.81 µM, an IC50 (JIMT-1) of 7 µM and an IC50 (RERF-LC-MS) of over 10 µM. For the same compound, the IC50 (HCT116) was 5.84 µM, the IC50 (MDA MB 435) was over 10 µM and the IC50 (OVCAR-3) was 1160 nM. For the same compound, the IC50 (KMS-12-BM) was 960 nM, the IC50 (DU-145) was 5.73 µM and the IC50 (COR-L279) was over 10 µM. For the same compound, the IC50 (OCI-AML5) was 1370 nM, the IC50 (A2780) was 4.58 µM and the IC50 (HEC-1-B) was over 10 µM.
